Earlier results on two compounds are cited in US20040142333A1, “Novel secreted proteins and their uses” (priority 2000, published 2004).

Where a SMILES comes first, the peptide text is derived from it. [ ]: non-standard residue; d: D form. The star is where a group is joined. 4Abz = Nc1ccc(C(=O)O)cc1; NHOH = ON*

One data set deals with T1, MMP-1 (Homo sapiens, UniProt P03956).
T1 sequence (P03956 100-469): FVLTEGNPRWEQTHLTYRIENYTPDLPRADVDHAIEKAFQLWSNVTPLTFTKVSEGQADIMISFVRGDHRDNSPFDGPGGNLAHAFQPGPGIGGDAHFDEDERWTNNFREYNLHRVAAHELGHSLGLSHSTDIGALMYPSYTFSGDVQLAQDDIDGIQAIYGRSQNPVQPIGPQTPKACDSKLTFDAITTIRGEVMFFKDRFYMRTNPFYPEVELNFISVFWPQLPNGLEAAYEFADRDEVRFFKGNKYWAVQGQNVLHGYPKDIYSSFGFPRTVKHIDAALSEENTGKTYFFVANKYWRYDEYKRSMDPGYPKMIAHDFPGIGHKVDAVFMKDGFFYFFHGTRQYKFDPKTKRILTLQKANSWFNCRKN
Conditions: read-out: IC50 against MMP-1.

The target of another data set is MMP-8 (Homo sapiens, UniProt P22894). To be noted: read-out: IC50 against MMP-8.
Another data set concerns the target MMP-9 (Homo sapiens, UniProt P14780). Conditions: read-out: IC50 against MMP-9.
The target in a further data set is MMP-3 (Homo sapiens, UniProt P08254). To be noted: read-out: IC50 against MMP-3.
Data set [1] has as its system human metastatic melanoma (M24 cells).
The next data set relates to M24 cells. To be noted: murine metastasis model.

MMP-9, sequence (P14780 94-707, species assumed): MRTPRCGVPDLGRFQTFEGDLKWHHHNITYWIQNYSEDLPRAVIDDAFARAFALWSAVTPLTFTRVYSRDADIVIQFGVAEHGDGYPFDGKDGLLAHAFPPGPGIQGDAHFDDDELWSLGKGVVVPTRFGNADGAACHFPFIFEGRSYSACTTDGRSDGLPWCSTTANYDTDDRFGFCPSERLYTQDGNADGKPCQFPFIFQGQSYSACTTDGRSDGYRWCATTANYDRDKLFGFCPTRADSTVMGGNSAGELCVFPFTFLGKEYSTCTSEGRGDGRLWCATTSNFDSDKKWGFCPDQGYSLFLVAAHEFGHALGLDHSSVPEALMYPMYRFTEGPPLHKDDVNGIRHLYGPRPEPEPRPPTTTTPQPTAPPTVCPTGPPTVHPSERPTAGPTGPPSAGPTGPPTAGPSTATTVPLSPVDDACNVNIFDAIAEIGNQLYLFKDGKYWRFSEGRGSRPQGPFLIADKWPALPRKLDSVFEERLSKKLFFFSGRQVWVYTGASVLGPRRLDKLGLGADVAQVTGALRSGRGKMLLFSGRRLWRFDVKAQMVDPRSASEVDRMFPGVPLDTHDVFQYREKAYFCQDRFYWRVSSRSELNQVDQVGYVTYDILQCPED
MMP-8, sequence (P22894 101-467, species assumed): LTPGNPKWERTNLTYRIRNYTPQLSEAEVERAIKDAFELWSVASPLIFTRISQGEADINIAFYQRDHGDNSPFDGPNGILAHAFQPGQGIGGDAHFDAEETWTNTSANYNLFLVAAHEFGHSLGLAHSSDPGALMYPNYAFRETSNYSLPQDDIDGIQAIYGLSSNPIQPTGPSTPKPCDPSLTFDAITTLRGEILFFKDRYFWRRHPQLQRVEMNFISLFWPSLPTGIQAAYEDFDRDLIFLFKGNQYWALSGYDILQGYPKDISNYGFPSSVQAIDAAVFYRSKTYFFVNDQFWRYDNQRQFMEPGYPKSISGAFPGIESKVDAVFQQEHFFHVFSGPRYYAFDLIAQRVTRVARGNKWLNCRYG
MMP-3, sequence (P08254 100-477, species assumed): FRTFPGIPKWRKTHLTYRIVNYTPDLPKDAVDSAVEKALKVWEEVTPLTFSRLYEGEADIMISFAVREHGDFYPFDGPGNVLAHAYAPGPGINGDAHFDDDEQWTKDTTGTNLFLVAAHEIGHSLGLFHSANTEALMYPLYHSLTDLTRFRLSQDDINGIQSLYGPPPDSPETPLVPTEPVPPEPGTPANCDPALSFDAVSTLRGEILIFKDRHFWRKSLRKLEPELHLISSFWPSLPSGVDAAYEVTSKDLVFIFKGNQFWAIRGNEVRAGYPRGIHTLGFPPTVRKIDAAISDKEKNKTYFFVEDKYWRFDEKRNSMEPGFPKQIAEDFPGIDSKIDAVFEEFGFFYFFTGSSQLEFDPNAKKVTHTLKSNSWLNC

In general, IC50 refers to the concentration that gives 50% inhibition. Take `CC(C)C[C@@H](NC(=O)[C@@H]1CCCN1C(=O)CNC(=O)c1ccc(N)cc1)C(=O)N[C@H](C)C(=O)NO` [MMP inhibitor I] (H-[4Abz]GP[dL][dA]-{NHOH}): the IC50 was 1 µM on MMP-1, 1 µM at MMP-8, 30 µM on MMP-9 and 150 µM at MMP-3.
Regarding contortrostatin, the “cell adhesion to type I collagen, vitronectin, and fibronectin” value in data set [1] is “inhibit”. Moreover, the “lung colonization of M24 cells” value in the data set on M24 cells is on record as “inhibits lung colonization”.
